For this assay, the system named is L1210 leukemia ip in BDF1 mice, survival T/C. Kind of assay: NCI In Vivo Anticancer Drug Screen. Data for tumor model L1210 Leukemia (intraperitoneal) in B6D2F1 (BDF1) mice. Conditions: endpoint: mean survival time, higher = longer survival. A digest of the protocol:
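Transplantable tumor model; survival measured in treated vs vehicle control mice. Value = treated/control.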

[1] abbreviates: dose: 50.0 mg/kg/injection, schedule: Q04DX003 (ip), vehicle: Klucel (hydroxypropylcellulose) (HPC).
Setting [2] is: dose: 100.0 mg/kg/injection, schedule: Q04DX003 (ip), vehicle: Klucel (hydroxypropylcellulose) (HPC).
The mark [3] stands for this setting: dose: 200.0 mg/kg/injection, schedule: Q04DX003 (ip), vehicle: Klucel (hydroxypropylcellulose) (HPC).
Where [4] appears, read: dose: 100.0 mg/kg/injection, schedule: Q01DX001 (ip), vehicle: Klucel (hydroxypropylcellulose) (HPC).
[5] abbreviates: dose: 200.0 mg/kg/injection, schedule: Q01DX001 (ip), vehicle: Klucel (hydroxypropylcellulose) (HPC).
[6] abbreviates: dose: 400.0 mg/kg/injection, schedule: Q01DX001 (ip), vehicle: Klucel (hydroxypropylcellulose) (HPC).
[7] abbreviates: dose: 400.0 mg/kg/injection, schedule: Q04DX003 (ip), vehicle: Klucel (hydroxypropylcellulose) (HPC).

Several values for one entry are separate records, joined by “and”; a condition that tells them apart may be missing. Equal values may be shown once. Inconclusive results and toxic doses are left out.

Regarding `C[NH-].C[NH-].[Cl][Pt+2][Cl]`, the T/C was 111 % of control (dose: 0.38 mg/kg/injection, schedule: Q03HX024 (ip), vehicle: water); 109 % of control (dose: 0.75 mg/kg/injection, schedule: Q03HX024 (ip), vehicle: water); 108 % of control (dose: 1.0 mg/kg/injection, schedule: Q01DX009 (ip), vehicle: other); 107 % of control (dose: 1.5 mg/kg/injection, schedule: Q03HX024 (ip), vehicle: water); 106 % of control (dose: 1.56 mg/kg/injection, schedule: Q03HX008 (ip), vehicle: water); 108 % of control (dose: 2.0 mg/kg/injection, schedule: Q01DX001 (ip), vehicle: other). For the same compound, the T/C (dose: 2.0 mg/kg/injection, schedule: Q01DX009 (ip), vehicle: other) is 122 % of control; the T/C (dose: 2.5 mg/kg/injection, schedule: Q01DX009 (ip), vehicle: water) is 110 % of control; the T/C (dose: 2.6 mg/kg/injection, schedule: Q01DX009 (ip), vehicle: saline with Tween-80) was 113 % of control; the T/C (dose: 3.0 mg/kg/injection, schedule: Q04DX003 (ip), vehicle: water) is 116 % of control; the T/C (dose: 3.13 mg/kg/injection, schedule: Q03HX008 (ip), vehicle: water) was 115 % of control; the T/C (dose: 4.0 mg/kg/injection, schedule: Q01DX001 (ip), vehicle: other) is 95 % of control. The T/C runs as follows: (dose: 4.0 mg/kg/injection, schedule: Q01DX009 (ip), vehicle: other) 116 % of control; (dose: 4.0 mg/kg/injection, schedule: Q01DX009 (ip), vehicle: saline with Tween-80) 124 % of control; (dose: 5.0 mg/kg/injection, schedule: Q04DX003 (ip), vehicle: saline with Tween-80) 115 % of control and 120 % of control; (dose: 6.0 mg/kg/injection, schedule: Q04DX003 (ip), vehicle: water) 123 % of control; (dose: 8.0 mg/kg/injection, schedule: Q01DX001 (ip), vehicle: other) 105 % of control; (dose: 8.0 mg/kg/injection, schedule: Q04DX003 (ip), vehicle: saline with Tween-80) 123 % of control. The T/C is 108 % of control (dose: 9.0 mg/kg/injection, schedule: Q01DX009 (ip), vehicle: saline with Tween-80); 164 % of control (dose: 12.0 mg/kg/injection, schedule: Q04DX003 (ip), vehicle: saline with Tween-80); 98 % of control and 90 % of control (dose: 12.5 mg/kg/injection, schedule: Q01DX009 (ip), vehicle: saline with Tween-80); 123 % of control (dose: 16.0 mg/kg/injection, schedule: Q01DX001 (ip), vehicle: other); 90 % of control (dose: 16.0 mg/kg/injection, schedule: Q01DX009 (ip), vehicle: other); 120 % of control (dose: 25.0 mg/kg/injection, schedule: Q01DX001 (ip), vehicle: water). In addition, the T/C is 119 % of control (dose: 32.0 mg/kg/injection, schedule: Q01DX001 (ip), vehicle: other) and 88 % of control (dose: 50.0 mg/kg/injection, schedule: Q04DX003 (ip), vehicle: saline with Tween-80).
Regarding `CN(C)CC1C2C=CC(C3CC23)C1CN(C)C` (centres undefined), the T/C (dose: 25.0 mg/kg/injection, schedule: Q01DX009 (ip), vehicle: Klucel (hydroxypropylcellulose) (HPC)) was 113 % of control; the T/C (dose: 25.0 mg/kg/injection, schedule: Q04DX003 (ip), vehicle: Klucel (hydroxypropylcellulose) (HPC)) is 94 % of control; the T/C (dose: 50.0 mg/kg/injection, schedule: Q01DX009 (ip), vehicle: Klucel (hydroxypropylcellulose) (HPC)) was 107 % of control; the T/C under setting [1] was 102 % of control; the T/C (dose: 100.0 mg/kg/injection, schedule: Q01DX009 (ip), vehicle: Klucel (hydroxypropylcellulose) (HPC)) is 108 % of control; the T/C under setting [2] was 94 % of control and 92 % of control. Further, under setting [3], the T/C was 89 % of control.
`O=C1C(Br)=CC(=NCl)C=C1Br`: the T/C runs as follows: (dose: 6.25 mg/kg/injection, schedule: Q01DX009 (ip), vehicle: DMSO) 87 % of control; (dose: 12.5 mg/kg/injection, schedule: Q01DX009 (ip), vehicle: DMSO) 94 % of control; (dose: 12.5 mg/kg/injection, schedule: Q04DX002 (ip), vehicle: DMSO) 103 % of control; (dose: 25.0 mg/kg/injection, schedule: Q04DX002 (ip), vehicle: DMSO) 95 % of control.
On to `S=c1[nH]c2nc(Cl)c(Cl)nc2[nH]1`, for which the T/C reads like this: (dose: 50.0 mg/kg/injection, schedule: Q01DX009 (ip), vehicle: saline with Tween-80) 95 % of control; (dose: 100.0 mg/kg/injection, schedule: Q01DX009 (ip), vehicle: saline with Tween-80) 91 % of control; (dose: 100.0 mg/kg/injection, schedule: Q04DX003 (ip), vehicle: saline with Tween-80) 97 % of control; (dose: 200.0 mg/kg/injection, schedule: Q01DX009 (ip), vehicle: saline with Tween-80) 100 % of control; (dose: 200.0 mg/kg/injection, schedule: Q04DX003 (ip), vehicle: saline with Tween-80) 102 % of control.
Turning to `COC(C)c1cnccc1/C(C)=C1/Nc2ccccc2C1=O` (centres undefined), the T/C is, setting by setting: under setting [1], 95 % of control; under setting [4], 107 % of control; under setting [2], 100 % of control and 91 % of control; under setting [5], 94 % of control; under setting [3], 96 % of control; under setting [6], 97 % of control. In addition, under setting [7], the T/C was 97 % of control.
With `Clc1ccc(/C=C/c2ccccn2)c(Cl)c1`, the T/C is 109 % of control (dose: 100.0 mg/kg/injection, schedule: Q04DX002 (ip), vehicle: gum acacia); 95 % of control (dose: 200.0 mg/kg/injection, schedule: Q04DX002 (ip), vehicle: gum acacia); 87 % of control (dose: 400.0 mg/kg/injection, schedule: Q04DX002 (ip), vehicle: gum acacia).
Take `CCCCCNCCO`: the T/C was 105 % of control (dose: 75.0 mg/kg/injection, schedule: Q01DX001 (ip), vehicle: saline); 105 % of control (dose: 150.0 mg/kg/injection, schedule: Q01DX001 (ip), vehicle: saline); 109 % of control (dose: 300.0 mg/kg/injection, schedule: Q01DX001 (ip), vehicle: saline).
For the compound `CC1=CCc2c(NS(=O)(=O)N(C)C)ccc(NS(=O)(=O)N(C)C)c2C1`, the T/C reads like this: under setting [4], 101 % of control; under setting [2], 94 % of control; under setting [5], 97 % of control; under setting [3], 93 % of control; under setting [6], 97 % of control; under setting [7], 91 % of control.
As for `CC1CN(CCCCO)C(=O)NC1=O` (centres undefined), the T/C was 90 % of control (dose: 100.0 mg/kg/injection, schedule: Q01DX001 (ip), vehicle: saline) and 88 % of control (dose: 200.0 mg/kg/injection, schedule: Q01DX001 (ip), vehicle: saline).
Consider `CC(C)N(CCO)CC1C(c2ccccc2)C1c1ccccc1` (centres undefined), for which the T/C (dose: 25.0 mg/kg/injection, schedule: Q04DX002 (ip), vehicle: Klucel (hydroxypropylcellulose) (HPC)) is 97 % of control; the T/C (dose: 50.0 mg/kg/injection, schedule: Q04DX002 (ip), vehicle: Klucel (hydroxypropylcellulose) (HPC)) is 100 % of control; the T/C (dose: 100.0 mg/kg/injection, schedule: Q04DX002 (ip), vehicle: Klucel (hydroxypropylcellulose) (HPC)) is 97 % of control.
On to `COc1ccc(NC(=O)Oc2ccccn2)cc1`, for which the T/C is, setting by setting: (dose: 25.0 mg/kg/injection, schedule: Q01DX009 (ip), vehicle: carboxymethylcellulose (CMC)) 92 % of control and 100 % of control; (dose: 50.0 mg/kg/injection, schedule: Q01DX009 (ip), vehicle: carboxymethylcellulose (CMC)) 93 % of control and 103 % of control; (dose: 100.0 mg/kg/injection, schedule: Q01DX001 (ip), vehicle: carboxymethylcellulose (CMC)) 97 % of control; (dose: 100.0 mg/kg/injection, schedule: Q04DX003 (ip), vehicle: carboxymethylcellulose (CMC)) 93 % of control and 106 % of control; (dose: 200.0 mg/kg/injection, schedule: Q01DX001 (ip), vehicle: carboxymethylcellulose (CMC)) 101 % of control; (dose: 200.0 mg/kg/injection, schedule: Q04DX003 (ip), vehicle: carboxymethylcellulose (CMC)) 97 % of control and 113 % of control. Further, the T/C runs as follows: (dose: 400.0 mg/kg/injection, schedule: Q01DX001 (ip), vehicle: carboxymethylcellulose (CMC)) 113 % of control; (dose: 400.0 mg/kg/injection, schedule: Q04DX003 (ip), vehicle: carboxymethylcellulose (CMC)) 97 % of control and 108 % of control.

Values taken from PubChem BioAssay AID248 (DTP/NCI, 2004).
